Results reported in patent publication US8563522B2, “Method of maintaining and/or attenuating a decline in quality of life” (The IAMS Company, priority 1997, dated 2013).

What was measured:
[1] = injected into a rat; cited from earlier work
[2] = system: utilization of glucose as an energy source; details: cited from earlier work
[3] = Mice fed a composition containing mannoheptulose; type: in vivo
[4] = Pharmacokinetics, twice daily mannoheptulose in composition fed to older Labrador Retrievers; type: in vivo, Labrador Retriever dogs
Protocol: The pharmacokinetics of mannoheptulose can be determined in ten adult, female Labrador Retriever dogs fed a nutritionally-balanced composition providing mannoheptulose at levels of 0 or 2 mg/kg of body weight of the dog. Mannoheptulose is provided as avocado extract in the 2 mg/kg diet. The mean age of the dogs is 7.1 years and the age ranges from 5.3 to 8.4 years. Dogs are age-matched across the two composition groups. The average body weight of all dogs is 29 kg and ranges from 25 to 35 kg. The 0 mg/kg composition is fed as a nutritionally-balanced control composition (Eukanuba Senior Maintenance Formula) and it contains no mannoheptulose, avocado extract or avocado meal. The 2 mg/kg composition is the nutritionally-balanced control composition formulated to contain avocado extract to provide mannoheptulose at a dose of 2 mg/kg of body weight of the dog. The amount of composition offered to the dogs is based on feeding guidelines for the control composition and the target weight range and body condition of the dogs. Dogs are fed one-half their daily allotment of composition at 0730 and the remaining half at 1330. Dogs 1, 2, 3, 4 and 5 are fed the composition containing 2 mg/kg mannoheptulose and dogs 6, 7, 8, 9 and 10 are fed the composition containing 0 mg/kg mannoheptulose. Pharmacokinetics of mannoheptulose following twice daily administration of mannoheptulose in a nutritionally-balanced composition is determined by collecting serial blood samples (3 mL) from each dog using a Vacutainer blood collection system and jugular venipuncture. […] Plasma mannoheptulose concentrations are measured using high-performance liquid chromatography tandem mass spectrometry as described herein below.
A one-compartment model is used to calculate mannoheptulose pharmacokinetics based on plasma mannoheptulose levels following twice daily oral administration of mannoheptulose in a nutritionally-balanced composition (PV(t)). The model is: PV(t)=dose/(a·BW)e^−kt where: a=mannoheptulose pool size (dose/(enrichment at t0)), BW=body weight, k=rate constant of elimination (ln Et−ln E0)/−t, and t=time.
High performance liquid chromatography tandem mass spectrometry (HPLC/MS/MS) is utilized to determine the amount of mannoheptulose present in the plasma of adult dogs. […] Detection and quantitation is by mass spectrometry (MS) operating under multiple reaction monitoring MS/MS conditions. Concentrations of D-mannoheptulose in dog plasma can be quantitated from approximately 20 to 5000 ng/mL. […] Specimen concentrations are determined by back-calculation using a weighted (1/x^2) linear regression of a calibration curve generated from prepared D-mannoheptulose calibration standards. […]

[5] = doses of 10 grams, humans, orally; cited from earlier work
[6] = injected, rats, cited from earlier work
[7] = Pharmacokinetics, once daily mannoheptulose in composition fed to adult Labrador Retrievers; type: in vivo, Labrador Retriever dogs
Protocol: The pharmacokinetics of mannoheptulose can be determined in six adult, male Labrador Retriever dogs fed a nutritionally-balanced composition providing mannoheptulose at levels of 0, 1 or 2 mg/kg of body weight of the dog. Mannoheptulose is provided as an enriched source of avocado extract in the 1 and 2 mg/kg diets. The mean age of the dogs is 4.2 years and the age ranges from 3.3 to 6.1 years. The average body weight of all dogs is 33 kg and the body weight ranges from 28 to 36 kg. Dogs are adapted for 14 days to a nutritionally-balanced control composition (Eukanuba Senior Maintenance Formula) containing no mannoheptulose, avocado extract or avocado meal (0 mg/kg mannoheptulose). The two compositions containing mannoheptulose are the nutritionally-balanced control composition formulated with avocado extract to provide a mannoheptulose dose of 1 or 2 mg/kg of body weight when fed to a dog. […] Pharmacokinetics of mannoheptulose following once daily administration of mannoheptulose in a nutritionally-balanced composition is determined by collecting serial blood samples (3 mL) from each dog on day 9 using a Vacutainer blood collection system and jugular venipuncture. […] Plasma mannoheptulose concentrations are measured using high-performance liquid chromatography tandem mass spectrometry as described herein below.
A one-compartment model is used to calculate mannoheptulose pharmacokinetics based on plasma mannoheptulose levels following once daily oral administration of mannoheptulose in a nutritionally-balanced composition (PV(t)). […] Area under each plasma mannoheptulose curve is determined using a one-way, repeated measures analysis of variance (GraphPad Prism version 4.00 for Windows).
High performance liquid chromatography tandem mass spectrometry (HPLC/MS/MS) is utilized to determine the amount of mannoheptulose present in the plasma of adult dogs. […] Detection and quantitation is by mass spectrometry (MS) operating under multiple reaction monitoring MS/MS conditions. Concentrations of D-mannoheptulose in dog plasma can be quantitated from approximately 20 to 5000 ng/mL. […]

glucose metabolism = details: rodents, long-term, lower dose; cited from earlier work
isolated rat hepatocytes = details: cited from earlier work
hexokinase = details: cited from earlier work

For `O=C[C@H](O)[C@@H](O)[C@H](O)[C@H](S)CO` [5-Thioglucose, 5-thio-D-glucose], the “injected 5-thioglucose excreted unchanged in urine” value [1] is listed as 97%.
For `CO[C@@H]([C@H](O)[C@H](O)CO)[C@@H](O)C=O` [3-O-methylglucose], the “responses relative to 2-deoxyglucose” value ([2]; administration in rats) is given as “about seven times weaker” and the metabolism ([2]; in contrast with 2-deoxy-D-glucose) is given as “not metabolized”.
For `O=C(CO)[C@@H](O)[C@@H](O)[C@H](O)[C@H](O)CO` [mannoheptulose], the body weight [3] was “slightly reduced body weight”, the plasma insulin levels [3] was “reduced plasma insulin levels” and the “time to second peak in plasma mannoheptulose” value ([4]; after feeding the afternoon meal, 2 mg/kg in two equal meals) was 4 h. For the same molecule, the “time to peak plasma mannoheptulose level” value ([4]; after initial (morning) feeding, 2 mg/kg in two equal meals) was 4 h, the plasma kinetics order ([4]; twice daily oral, 2 mg/kg) was “first order kinetics” and the half-life ([4]; twice daily, 2 mg/kg, after the afternoon meal) was 5.63 h. For the same molecule, the “safety of oral dosing” value [5] was “safely administered”, the “remained in the body” value ([6]; a day after the injection) was 5% and the excreted unchanged [6] was 66%. The metabolized [6] was 29%, the “plasma level response to dietary mannoheptulose level” value ([7]; 0, 1, 2 mg/kg) was “dose-dependent” and the “time of return of plasma mannoheptulose to non-detectable levels” value ([7]; after consumption of the single daily meal) was at most 24 h. For the same molecule, the plasma kinetics order ([7]; once daily oral, 1 or 2 mg/kg) was “first order kinetics”.
For `O=CC[C@@H](O)[C@H](O)[C@H](O)CO` [2-deoxy-D-glucose], the “metabolic hallmarks of caloric restriction” value (glucose metabolism) is given as “reduced body temperature, weight loss, and lower fasting insulin levels”.
In the case of `OC[C@H]1O[C@H](CO)[C@@H](O)[C@@H]1O` [2,5-Anhydro-D-mannitol, 2,5-anhydro-D-mannitol], the “effect on glucose formation and utilization” value (isolated rat hepatocytes) is listed as “interfere in glucose formation and utilization”.
For `O=P(O)(O)OC[C@H]1OC[C@H](O)[C@@H](O)[C@@H]1O` [1,5-anhydro-D-glucitol-6-phosphate], the inhibition of hexokinase (hexokinase) is given as “allosteric (non-competitive) inhibitor”.
